{
  "source": "the OligoGym collection",
  "note": "HELM strings list units from the 5' end as sugar, base in round brackets, then linkage (d deoxyribose, r ribose, m 2'-O-methyl, p phosphodiester). Strings are as the collection lists them; they lack the last nucleoside at the 3' end of the tested compound. [moe] = 2'-O-(2-methoxyethyl) (MOE); [sp] = phosphorothioate linkage; [m5C] = 5-methylcytosine",
  "data": [
    {"target": "ATXN2", "assay": "mouse, dose not given", "settings": "ASO", "units": {"3 h FOB score": "score 0-7"}, "values": [
      {"substance": "RNA1{[moe](T)[sp].[moe](A)p.[moe]([m5C])p.[moe](T)p.[moe](T)p.d(T)[sp].d(T)[sp].d([m5C])[sp].d(T)[sp].d([m5C])[sp].d(A)[sp].d(T)[sp].d(G)[sp].d(T)[sp].d(G)[sp].[moe]([m5C])p.[moe](G)p.[moe](G)[sp].[moe]([m5C])}$$$$ (last 3' nucleoside missing)", "3 h FOB score": 3.75},
      {"substance": "RNA1{[moe](T)[sp].[moe](T)p.[moe](A)p.[moe](G)p.[moe](A)[sp].d(G)[sp].d(T)[sp].d(T)[sp].d(T)[sp].d(T)[sp].d(T)[sp].d(G)[sp].d([m5C])[sp].[moe]([m5C])p.[moe](T)p.[moe](T)[sp].[moe]([m5C])}$$$$ (last 3' nucleoside missing)", "3 h FOB score": 5.5},
      {"substance": "RNA1{[moe](G)[sp].[moe](T)p.[moe](T)p.[moe](A)p.[moe]([m5C])p.d(T)[sp].d(G)[sp].d(T)[sp].d(T)[sp].d(T)[sp].d([m5C])[sp].d(G)[sp].d(A)[sp].d([m5C])[sp].d([m5C])[sp].[moe](T)p.[moe]([m5C])p.[moe](G)[sp].[moe](G)}$$$$ (last 3' nucleoside missing)", "3 h FOB score": 4.5},
      {"substance": "RNA1{[moe](G)[sp].[moe]([m5C])p.[moe](T)p.[moe](T)p.[moe](A)[sp].d(G)[sp].d(A)[sp].d(G)[sp].d(T)[sp].d(T)[sp].d(T)[sp].d(T)[sp].d(T)[sp].[moe](G)p.[moe]([m5C])p.[moe]([m5C])[sp].[moe](T)}$$$$ (last 3' nucleoside missing)", "3 h FOB score": 4},
      {"substance": "RNA1{[moe]([m5C])[sp].[moe](T)p.[moe]([m5C])p.[moe](T)p.[moe]([m5C])p.[moe]([m5C])p.d(A)[sp].d(T)[sp].d(T)[sp].d(A)[sp].d(T)[sp].d(T)[sp].d(T)[sp].d([m5C])[sp].d(T)[sp].d(T)[sp].[moe]([m5C])p.[moe](A)[sp].[moe]([m5C])}$$$$ (last 3' nucleoside missing)", "3 h FOB score": 2},
      {"substance": "RNA1{[moe](T)[sp].[moe](G)p.[moe](T)p.[moe](T)p.[moe](A)p.d([m5C])[sp].d(T)[sp].d(T)[sp].d(A)[sp].d(T)[sp].d(T)[sp].d(A)[sp].d([m5C])[sp].d([m5C])[sp].d(T)[sp].[moe](T)p.[moe]([m5C])p.[moe]([m5C])[sp].[moe](T)}$$$$ (last 3' nucleoside missing)", "3 h FOB score": 4},
      {"substance": "RNA1{[moe](G)[sp].[moe](T)p.[moe](T)p.[moe](A)p.d([m5C])[sp].d(T)[sp].d(G)[sp].d(T)[sp].d(T)[sp].d(T)[sp].d([m5C])[sp].d(G)[sp].d(A)[sp].d([m5C])[sp].[moe]([m5C])p.[moe](T)p.[moe]([m5C])p.[moe](T)[sp].[moe](G)}$$$$ (last 3' nucleoside missing)", "3 h FOB score": 6.5},
      {"substance": "RNA1{[moe](T)[sp].[moe](T)p.[moe]([m5C])p.[moe](T)p.[moe]([m5C])p.d(T)[sp].d(A)[sp].d(T)[sp].d(T)[sp].d(T)[sp].d([m5C])[sp].d(T)[sp].d(T)[sp].d(T)[sp].d(G)[sp].[moe](T)p.[moe]([m5C])p.[moe]([m5C])[sp].[moe](A)}$$$$ (last 3' nucleoside missing)", "3 h FOB score": 3},
      {"substance": "RNA1{[moe](A)[sp].[moe](A)p.[moe](G)p.[moe](T)p.[moe](T)p.d([m5C])[sp].d([m5C])[sp].d([m5C])[sp].d(A)[sp].d(T)[sp].d(T)[sp].d(G)[sp].d([m5C])[sp].d(A)[sp].d(T)[sp].[moe](T)p.[moe](G)p.[moe](T)[sp].[moe](T)}$$$$ (last 3' nucleoside missing)", "3 h FOB score": 6},
      {"substance": "RNA1{[moe](G)[sp].[moe]([m5C])p.[moe](A)p.[moe](T)p.[moe]([m5C])p.d(A)[sp].d(T)[sp].d(T)[sp].d(A)[sp].d([m5C])[sp].d(G)[sp].d(A)[sp].d([m5C])[sp].d([m5C])[sp].d(A)[sp].[moe](T)p.[moe](T)p.[moe]([m5C])[sp].[moe](T)}$$$$ (last 3' nucleoside missing)", "3 h FOB score": 4},
      {"substance": "RNA1{[moe](T)[sp].[moe]([m5C])p.[moe](T)p.[moe](G)p.[moe](T)p.d(A)[sp].d([m5C])[sp].d(T)[sp].d(T)[sp].d(T)[sp].d(T)[sp].d([m5C])[sp].d(T)[sp].d([m5C])[sp].d(A)[sp].[moe](T)p.[moe](G)p.[moe](T)[sp].[moe](G)}$$$$ (last 3' nucleoside missing)", "3 h FOB score": 0},
      {"substance": "RNA1{[moe](T)[sp].[moe](A)p.[moe](G)p.[moe](A)p.[moe](G)p.d(T)[sp].d(T)[sp].d(T)[sp].d(T)[sp].d(T)[sp].d(G)[sp].d([m5C])[sp].d([m5C])[sp].d(T)[sp].d(T)[sp].[moe]([m5C])p.[moe]([m5C])p.[moe](A)[sp].[moe](T)}$$$$ (last 3' nucleoside missing)", "3 h FOB score": 2.5},
      {"substance": "RNA1{[moe]([m5C])[sp].[moe](T)p.[moe](T)p.[moe]([m5C])p.[moe](T)p.d([m5C])[sp].d(T)[sp].d(A)[sp].d(T)[sp].d(T)[sp].d(T)[sp].d([m5C])[sp].d(T)[sp].d(T)[sp].d(T)[sp].[moe](G)p.[moe](T)p.[moe]([m5C])[sp].[moe]([m5C])}$$$$ (last 3' nucleoside missing)", "3 h FOB score": 1},
      {"substance": "RNA1{[moe](A)[sp].[moe](A)p.[moe](T)p.[moe](A)p.[moe](T)p.d(T)[sp].d([m5C])[sp].d([m5C])[sp].d(A)[sp].d(T)[sp].d(A)[sp].d([m5C])[sp].d(A)[sp].d(G)[sp].d(A)[sp].[moe](T)p.[moe]([m5C])p.[moe](G)[sp].[moe]([m5C])}$$$$ (last 3' nucleoside missing)", "3 h FOB score": 2.5},
      {"substance": "RNA1{[moe](G)[sp].[moe](T)p.[moe](T)p.[moe]([m5C])p.[moe](A)p.d(T)[sp].d(T)[sp].d([m5C])[sp].d([m5C])[sp].d(A)[sp].d(G)[sp].d(A)[sp].d(T)[sp].d(T)[sp].d(T)[sp].[moe]([m5C])p.[moe](A)p.[moe]([m5C])[sp].[moe](T)}$$$$ (last 3' nucleoside missing)", "3 h FOB score": 4},
      {"substance": "RNA1{[moe]([m5C])[sp].[moe](T)p.[moe]([m5C])p.[moe](T)p.[moe](A)p.d(T)[sp].d(T)[sp].d(T)[sp].d([m5C])[sp].d(T)[sp].d(T)[sp].d(T)[sp].d(G)[sp].d(T)[sp].d([m5C])[sp].[moe]([m5C])p.[moe](A)p.[moe](G)[sp].[moe](G)}$$$$ (last 3' nucleoside missing)", "3 h FOB score": 3.5},
      {"substance": "RNA1{[moe](T)[sp].[moe](G)p.[moe]([m5C])p.[moe](T)p.[moe](T)p.d(A)[sp].d(T)[sp].d(T)[sp].d(A)[sp].d(T)[sp].d(T)[sp].d([m5C])[sp].d(T)[sp].d([m5C])[sp].d(A)[sp].[moe]([m5C])p.[moe](A)p.[moe](T)[sp].[moe](A)}$$$$ (last 3' nucleoside missing)", "3 h FOB score": 0},
      {"substance": "RNA1{[moe]([m5C])[sp].[moe](A)p.[moe](G)p.[moe](T)p.[moe](G)p.d(T)[sp].d(T)[sp].d(G)[sp].d([m5C])[sp].d(A)[sp].d([m5C])[sp].d(A)[sp].d(T)[sp].d(A)[sp].d(G)[sp].[moe](G)p.[moe](T)p.[moe](T)[sp].[moe](A)}$$$$ (last 3' nucleoside missing)", "3 h FOB score": 5},
      {"substance": "RNA1{[moe](G)[sp].[moe](T)p.[moe](G)p.[moe](G)p.[moe]([m5C])p.d(T)[sp].d(T)[sp].d(T)[sp].d(A)[sp].d(A)[sp].d(A)[sp].d(A)[sp].d(A)[sp].d([m5C])[sp].d(T)[sp].[moe](A)p.[moe](G)p.[moe](G)[sp].[moe](T)}$$$$ (last 3' nucleoside missing)", "3 h FOB score": 0}
    ]}
  ]
}
